Measured values reported in publication PMC5218480 (PLoS ONE, 2017).

Tested on: MV-4-11 cells
Assay: Gene expression microarray analysis (Affymetrix PrimeView) and GSEA
Assay type: cell-based, human
Design: RFU PODN (11730768_x_at) / Fold change /veh PODN (11730768_x_at) / RFU LINC00158 (11744669_a_at) / Fold change /veh LINC00158 (11744669_a_at) / RFU DUSP10 (11751237_a_at) / Fold change /veh DUSP10 (11751237_a_at) / RFU ID3 (11757404_x_at) / Fold change /veh ID3 (11757404_x_at) / RFU PLEKHG5 (11737974_s_at) / Fold change /veh PLEKHG5 (11737974_s_at) / RFU LRRC4B (11730491_at) / Fold change /veh LRRC4B (11730491_at) / RFU GIMAP4 (11747438_a_at) / Fold change /veh GIMAP4 (11747438_a_at) / RFU KRT8 (11758183_x_at) / Fold change /veh KRT8 (11758183_x_at) / RFU CNN1 (11734310_a_at) / Fold change /veh CNN1 (11734310_a_at) / RFU VPS37D (11726825_at) / Fold change /veh VPS37D (11726825_at) / RFU C10orf10 (11716522_x_at) / Fold change /veh C10orf10 (11716522_x_at) / RFU KIR2DL2 /// KIR2DL4 /// KIR2DL5A /// KIR2DL5B /// KIR2DS1 /// KIR2DS2 /// KIR2DS3 /// KIR2DS4 /// KIR3DL3 /// KIR3DL3 /// KIR3DS1 (11738374_at) / Fold change /veh KIR2DL2 /// KIR2DL4 /// KIR2DL5A /// KIR2DL5B /// KIR2DS1 /// KIR2DS2 /// KIR2DS3 /// KIR2DS4 /// KIR3DL3 /// KIR3DL3 /// KIR3DS1 (11738374_at) / RFU C1QL1 (11718748_at) / Fold change /veh C1QL1 (11718748_at) / RFU TMPRSS4 (11747572_a_at) / Fold change /veh TMPRSS4 (11747572_a_at) / RFU HAMP (11756126_x_at) / Fold change /veh HAMP (11756126_x_at) / RFU RNFT2 (11725882_a_at) / Fold change /veh RNFT2 (11725882_a_at) / RFU NR4A2 (11747474_a_at) / Fold change /veh NR4A2 (11747474_a_at) / RFU ABCC12 (11746883_a_at) / Fold change /veh ABCC12 (11746883_a_at) / RFU TMEM136 (11760407_x_at) / Fold change /veh TMEM136 (11760407_x_at) / RFU CLDN22 /// WWC2 (11732394_at) / Fold change /veh CLDN22 /// WWC2 (11732394_at) / RFU HLA-DPB1 (11760878_x_at) / Fold change /veh HLA-DPB1 (11760878_x_at) / RFU SPINT1 (11716480_a_at) / Fold change /veh SPINT1 (11716480_a_at) / RFU GAP43 (11754022_s_at) / Fold change /veh GAP43 (11754022_s_at) / RFU A4GNT (11735810_at) / Fold change /veh A4GNT (11735810_at) / RFU PRB3 (11715151_x_at) / Fold change /veh PRB3 (11715151_x_at) / RFU TUBB4B (11761932_at) / Fold change /veh TUBB4B (11761932_at) / RFU CAPN14 (11732068_a_at) / Fold change /veh CAPN14 (11732068_a_at) / RFU TMCC2 (11721928_a_at) / Fold change /veh TMCC2 (11721928_a_at) / RFU IRGQ (11745062_a_at) / Fold change /veh IRGQ (11745062_a_at) / RFU FAM174B (11720279_a_at) / Fold change /veh FAM174B (11720279_a_at) / RFU TMPRSS4 (11748680_a_at) / Fold change /veh TMPRSS4 (11748680_a_at) / RFU FAM212B (11763350_a_at) / Fold change /veh FAM212B (11763350_a_at) / RFU PLEKHG5 (11743358_a_at) / Fold change /veh PLEKHG5 (11743358_a_at) / RFU ZSCAN30 (11745921_a_at) / Fold change /veh ZSCAN30 (11745921_a_at) / RFU CMKLR1 (11741424_a_at) / Fold change /veh CMKLR1 (11741424_a_at) / RFU LOC101060620 /// MAPK8IP1 (11723275_at) / Fold change /veh LOC101060620 /// MAPK8IP1 (11723275_at) / RFU SPTSSB (11747773_x_at) / Fold change /veh SPTSSB (11747773_x_at) / RFU PRSS12 (11739890_at) / Fold change /veh PRSS12 (11739890_at) / RFU BIN1 (11741810_x_at) / Fold change /veh BIN1 (11741810_x_at) / RFU WNT11 (11732464_a_at) / Fold change /veh WNT11 (11732464_a_at) / RFU C10orf10 (11716521_a_at) / Fold change /veh C10orf10 (11716521_a_at) / RFU C5orf56 (11738089_at) / Fold change /veh C5orf56 (11738089_at) / RFU CYB561 (11721691_x_at) / Fold change /veh CYB561 (11721691_x_at) / RFU ANKRD19P (11752326_a_at) / Fold change /veh ANKRD19P (11752326_a_at) / RFU OR2T12 /// OR2T33 /// OR2T8 (11738714_s_at) / Fold change /veh OR2T12 /// OR2T33 /// OR2T8 (11738714_s_at) / RFU VCAN (11748164_a_at) / Fold change /veh VCAN (11748164_a_at) / RFU JSRP1 (11732532_at) / Fold change /veh JSRP1 (11732532_at) / RFU KRTAP10-11 (11738290_x_at) / Fold change /veh KRTAP10-11 (11738290_x_at) / RFU MYO3A (11730013_a_at) / Fold change /veh MYO3A (11730013_a_at) / RFU EBF3 (11725865_a_at) / Fold change /veh EBF3 (11725865_a_at) / RFU CAMK2N1 (11719241_x_at) / Fold change /veh CAMK2N1 (11719241_x_at) / RFU C5orf56 (11738088_a_at) / Fold change /veh C5orf56 (11738088_a_at) / RFU OLFML3 (11715873_a_at) / Fold change /veh OLFML3 (11715873_a_at) / RFU LOC100653217 /// NTM (11731650_a_at) / Fold change /veh LOC100653217 /// NTM (11731650_a_at) / RFU MAPK11 (11762145_a_at) / Fold change /veh MAPK11 (11762145_a_at) / RFU FIZ1 (11724087_x_at) / Fold change /veh FIZ1 (11724087_x_at) / RFU OASL (11726364_x_at) / Fold change /veh OASL (11726364_x_at) / RFU SOX15 (11748057_x_at) / Fold change /veh SOX15 (11748057_x_at) / RFU CD79A (11719716_a_at) / Fold change /veh CD79A (11719716_a_at) / RFU HIST1H1D (11736915_at) / Fold change /veh HIST1H1D (11736915_at) / RFU CASKIN2 (11723855_a_at) / Fold change /veh CASKIN2 (11723855_a_at) / RFU LOC730098 (11760151_x_at) / Fold change /veh LOC730098 (11760151_x_at) / RFU OR4N2 (11742367_at) / Fold change /veh OR4N2 (11742367_at) / RFU PRRT2 (11749266_a_at) / Fold change /veh PRRT2 (11749266_a_at) / RFU SNX32 (11753110_a_at) / Fold change /veh SNX32 (11753110_a_at) / RFU CDHR5 (11726645_a_at) / Fold change /veh CDHR5 (11726645_a_at) / RFU RCAN1 (11760418_a_at) / Fold change /veh RCAN1 (11760418_a_at) / RFU FAM167A (11723789_a_at) / Fold change /veh FAM167A (11723789_a_at) / RFU FAM26E (11764081_at) / Fold change /veh FAM26E (11764081_at) / RFU ISYNA1 (11749810_s_at) / Fold change /veh ISYNA1 (11749810_s_at) / RFU ACY1 (11761880_at) / Fold change /veh ACY1 (11761880_at) / RFU 11764098_at / Fold change /veh 11764098_at / RFU SAMD14 (11745864_x_at) / Fold change /veh SAMD14 (11745864_x_at) / RFU NPB (11741838_a_at) / Fold change /veh NPB (11741838_a_at) / RFU TMPRSS6 (11731388_a_at) / Fold change /veh TMPRSS6 (11731388_a_at) / RFU KRTAP10-2 (11738614_at) / Fold change /veh KRTAP10-2 (11738614_at) / RFU ARHGAP8 /// PRR5-ARHGAP8 (11727945_x_at) / Fold change /veh ARHGAP8 /// PRR5-ARHGAP8 (11727945_x_at) / RFU KRTAP5-7 /// NADSYN1 (11734609_at) / Fold change /veh KRTAP5-7 /// NADSYN1 (11734609_at) / RFU RASL12 (11751679_a_at) / Fold change /veh RASL12 (11751679_a_at) / RFU CDKN2B (11736163_a_at) / Fold change /veh CDKN2B (11736163_a_at) / RFU PRF1 (11729649_at) / Fold change /veh PRF1 (11729649_at) / RFU, ZNF638 /// ZNF638-IT1 / Fold change vs veh, ZNF638 /// ZNF638-IT1 / RFU, PANK3 / Fold change vs veh, PANK3 / RFU, SH3YL1 / Fold change vs veh, SH3YL1 / RFU, ZEB2 / Fold change vs veh, ZEB2 / RFU, NRIP1 / Fold change vs veh, NRIP1 / RFU, PTTG1IP / Fold change vs veh, PTTG1IP / RFU, CAPN2 / Fold change vs veh, CAPN2 / RFU, MED14 / Fold change vs veh, MED14 / RFU, SNORA58 / Fold change vs veh, SNORA58 / RFU, C1orf63 / Fold change vs veh, C1orf63 / RFU, LRRFIP1 / Fold change vs veh, LRRFIP1 / RFU, NDUFAF7 / Fold change vs veh, NDUFAF7 / RFU, SLC12A2 / Fold change vs veh, SLC12A2 / RFU, IBTK / Fold change vs veh, IBTK / RFU, ESF1 / Fold change vs veh, ESF1 / Fold change vs veh, TMEM50B / RFU, TAOK1 / Fold change vs veh, TAOK1 / RFU, ACBD3 / Fold change vs veh, ACBD3 / RFU, TMA16 / Fold change vs veh, TMA16 / RFU, RWDD3 / Fold change vs veh, RWDD3 / RFU, BCAT1 / Fold change vs veh, BCAT1 / RFU, EDEM3 / Fold change vs veh, EDEM3 / RFU, TMEM33 / Fold change vs veh, TMEM33 / RFU, WDR75 / Fold change vs veh, WDR75 / RFU, AHCTF1 / Fold change vs veh, AHCTF1 / RFU, TFRC / Fold change vs veh, TFRC / RFU, ZDHHC17 / Fold change vs veh, ZDHHC17 / RFU, NOM1 / Fold change vs veh, NOM1 / RFU, ARL8B / Fold change vs veh, ARL8B / RFU, ZBTB11 / Fold change vs veh, ZBTB11 / RFU, TAMM41 / Fold change vs veh, TAMM41 / RFU, KIAA1704 /// LOC100996395 / Fold change vs veh, KIAA1704 /// LOC100996395 / RFU, ING1 / Fold change vs veh, ING1 / RFU, TRMT61B / Fold change vs veh, TRMT61B / RFU, FUBP3 / Fold change vs veh, FUBP3 / RFU, TP53 / Fold change vs veh, TP53 / RFU, TNKS2 / Fold change vs veh, TNKS2 / RFU, ZFP14 / Fold change vs veh, ZFP14 / RFU, ACTR2 / Fold change vs veh, ACTR2 / RFU, PPP3R1 / Fold change vs veh, PPP3R1 / RFU, PIK3R1 / Fold change vs veh, PIK3R1 / RFU, HNRNPA1 / Fold change vs veh, HNRNPA1 / RFU, RNF170 / Fold change vs veh, RNF170 / RFU, ZNF28 / Fold change vs veh, ZNF28 / RFU, RNGTT / Fold change vs veh, RNGTT / RFU, OGT / Fold change vs veh, OGT / RFU, BRD1 / Fold change vs veh, BRD1 / RFU, MARS / Fold change vs veh, MARS / RFU, ZNF655 / Fold change vs veh, ZNF655 / RFU, FAHD1 / Fold change vs veh, FAHD1 / RFU, BDP1 / Fold change vs veh, BDP1 / RFU, LRRCC1 / Fold change vs veh, LRRCC1 / RFU, ARID1A / Fold change vs veh, ARID1A / RFU, ZNF146 / Fold change vs veh, ZNF146 / RFU, ZNF330 / Fold change vs veh, ZNF330 / RFU, GPN3 / Fold change vs veh, GPN3 / RFU, C9orf123 / Fold change vs veh, C9orf123 / RFU, N4BP2L2 / Fold change vs veh, N4BP2L2 / RFU, ARFIP1 / Fold change vs veh, ARFIP1 / RFU, FAM179B / Fold change vs veh, FAM179B / RFU, BCL10 / Fold change vs veh, BCL10 / RFU, UHRF1BP1L / Fold change vs veh, UHRF1BP1L / RFU, BET1 / Fold change vs veh, BET1 / RFU, CNOT2 / Fold change vs veh, CNOT2 / RFU, ZNF268 / Fold change vs veh, ZNF268 / Fold change vs veh, ZNF507 / RFU, DGCR2 / Fold change vs veh, DGCR2 / RFU, WDSUB1 / Fold change vs veh, WDSUB1 / Fold change vs veh, HSP90B1 /// MIR3652 / RFU, ADSS / Fold change vs veh, ADSS / RFU, GK / Fold change vs veh, GK / RFU, ZNF148 / Fold change vs veh, ZNF148 / RFU, TAF9 / Fold change vs veh, TAF9 / RFU, SLC1A5 / Fold change vs veh, SLC1A5 / RFU, SLMO2 / Fold change vs veh, SLMO2 / RFU, ABCC4 / Fold change vs veh, ABCC4 / RFU, LOC101060439 /// RAP1B / Fold change vs veh, LOC101060439 /// RAP1B / RFU, RFX7 / Fold change vs veh, RFX7 / RFU, GTPBP10 / Fold change vs veh, GTPBP10 / RFU, CNEP1R1 / Fold change vs veh, CNEP1R1 / RFU, BIVM-ERCC5 /// ERCC5 / Fold change vs veh, BIVM-ERCC5 /// ERCC5 / RFU, ILF3 / Fold change vs veh, ILF3 / RFU 11762660_at / Fold change /veh 11762660_at / RFU VCAN (11757783_s_at) / Fold change /veh VCAN (11757783_s_at) / RFU DDX43 (11728927_at) / Fold change /veh DDX43 (11728927_at) / RFU KRT8 (11758188_x_at) / Fold change /veh KRT8 (11758188_x_at) / RFU NKD1 (11759106_at) / Fold change /veh NKD1 (11759106_at) / RFU SRD5A1 (11742802_a_at) / Fold change /veh SRD5A1 (11742802_a_at) / RFU TPSAB1 /// TPSB2 (11721975_s_at) / Fold change /veh TPSAB1 /// TPSB2 (11721975_s_at) / RFU GSTM3 (11746129_a_at) / Fold change /veh GSTM3 (11746129_a_at) / RFU IL23R (11737362_x_at) / Fold change /veh IL23R (11737362_x_at) / RFU TMEM51 (11727254_a_at) / Fold change /veh TMEM51 (11727254_a_at) / RFU PIWIL2 (11732686_x_at) / Fold change /veh PIWIL2 (11732686_x_at) / RFU ORM1 (11744905_x_at) / Fold change /veh ORM1 (11744905_x_at) / RFU CCDC152 (11743942_at) / Fold change /veh CCDC152 (11743942_at) / RFU ECM1 (11717891_a_at) / Fold change /veh ECM1 (11717891_a_at) / RFU IL23R (11748794_a_at) / Fold change /veh IL23R (11748794_a_at) / RFU TNFAIP8L3 (11732012_x_at) / Fold change /veh TNFAIP8L3 (11732012_x_at) / RFU MBOAT4 (11741988_at) / Fold change /veh MBOAT4 (11741988_at) / RFU 11764193_at / Fold change /veh 11764193_at / RFU TMEM53 (11763286_at) / Fold change /veh TMEM53 (11763286_at) / RFU MAGEB2 (11727129_at) / Fold change /veh MAGEB2 (11727129_at) / RFU TMEM200A (11744735_a_at) / Fold change /veh TMEM200A (11744735_a_at) / RFU CCDC152 (11751479_a_at) / Fold change /veh CCDC152 (11751479_a_at) / RFU FAM211A (11726209_a_at) / Fold change /veh FAM211A (11726209_a_at) / RFU RGS16 (11746705_a_at) / Fold change /veh RGS16 (11746705_a_at) / RFU VCAN (11755009_s_at) / Fold change /veh VCAN (11755009_s_at) / RFU RHOB (11743442_s_at) / Fold change /veh RHOB (11743442_s_at) / RFU RGS16 (11720943_a_at) / Fold change /veh RGS16 (11720943_a_at) / RFU RGS16 (11720944_at) / Fold change /veh RGS16 (11720944_at) / RFU, VPS4B / Fold change vs veh, VPS4B / RFU, CREB1 / Fold change vs veh, CREB1 / RFU, DNAJC13 / Fold change vs veh, DNAJC13 / RFU, GNAQ / Fold change vs veh, GNAQ / RFU, CDK5R1 / Fold change vs veh, CDK5R1 / RFU, ZRANB3 / Fold change vs veh, ZRANB3 / RFU, CUL4A / Fold change vs veh, CUL4A / RFU, CCNY / Fold change vs veh, CCNY / RFU, UFL1 / Fold change vs veh, UFL1 / RFU, COG3 / Fold change vs veh, COG3 / RFU, DIAPH2 / Fold change vs veh, DIAPH2 / RFU, SKA2 / Fold change vs veh, SKA2 / RFU, AFF3 / Fold change vs veh, AFF3 / RFU, LMF1 / Fold change vs veh, LMF1 / RFU, IPO11 / Fold change vs veh, IPO11 / RFU, DFFB / Fold change vs veh, DFFB / RFU, FOXP1 / Fold change vs veh, FOXP1 / RFU, CARD8 / Fold change vs veh, CARD8 / RFU, STRN3 / Fold change vs veh, STRN3 / RFU, ADK / Fold change vs veh, ADK / RFU, RASSF2 / Fold change vs veh, RASSF2 / RFU, WIPF1 / Fold change vs veh, WIPF1 / RFU, LARP1B / Fold change vs veh, LARP1B / RFU, RASA1 / Fold change vs veh, RASA1 / RFU, RB1 / Fold change vs veh, RB1 / RFU, PPFIA1 / Fold change vs veh, PPFIA1 / RFU, MAT2A / Fold change vs veh, MAT2A / RFU, CCT5 / Fold change vs veh, CCT5 / RFU, WDR92 / Fold change vs veh, WDR92 / RFU, CUX1 / Fold change vs veh, CUX1 / RFU, TTC7A / Fold change vs veh, TTC7A / RFU, TMEM135 / Fold change vs veh, TMEM135 / RFU, DEPTOR / Fold change vs veh, DEPTOR / RFU, CPM / Fold change vs veh, CPM / RFU, DNAJB6 / Fold change vs veh, DNAJB6 / RFU, CACNA2D3 / Fold change vs veh, CACNA2D3 / RFU, DTX4 / Fold change vs veh, DTX4 / RFU, TFCP2 / Fold change vs veh, TFCP2 / RFU, GMCL1 /// GMCL1P1 / Fold change vs veh, GMCL1 /// GMCL1P1 / RFU, AEBP2 / Fold change vs veh, AEBP2 / RFU, SNHG1 /// SNORD22 /// SNORD25 /// SNORD26 /// SNORD27 /// SNORD28 /// SNORD29 /// SNORD31 / Fold change vs veh, SNHG1 /// SNORD22 /// SNORD25 /// SNORD26 /// SNORD27 /// SNORD28 /// SNORD29 /// SNORD31 / Fold change (Aza/veh), C12orf56 (ProbeSet 11735607_a_at) / Fold change (ACY-1035/veh), C12orf56 (ProbeSet 11735607_a_at) / Fold change (Aza/veh), FGFR1OP (ProbeSet 11751329_s_at) / Fold change (ACY-1035/veh), FGFR1OP (ProbeSet 11751329_s_at) / Fold change (Aza/veh), VPS36 (ProbeSet 11739960_a_at) / Fold change (ACY-1035/veh), VPS36 (ProbeSet 11739960_a_at) / RFU SYPL1 (11715823_x_at) / Fold change /veh SYPL1 (11715823_x_at) / RFU IGFBP7 (11715501_s_at) / Fold change /veh IGFBP7 (11715501_s_at) / RFU REEP3 (11722064_at) / Fold change /veh REEP3 (11722064_at) / RFU IGLL1 (11728026_x_at) / Fold change /veh IGLL1 (11728026_x_at): dose or concentration left out as unconfirmed
Settings: ProbeSet 11729384_s_at; LIST D

## Nc1ncn([C@@H]2O[C@H](CO)[C@@H](O)[C@H]2O)c(=O)n1 [azacitidine]
  Fold change vs veh, CCNY: 0.82
